Experimental data published in patent publication US4539331A, “Imidazole carboxamide derivatives and pharmaceutical compositions thereof” (priority 1981, dated 1985).
Where two headings read alike, the source gives them in different places.

Key:
[1] = system: writhing; assay: writhing test (analgesic activity); type: in vivo, mouse; conditions: for ED50: Mus musculus, ip
[2] = system: beer yeast induced fever; assay: beer yeast induced fever (antipyretic activity); type: in vivo
[3] = system: gastric mucous; type: in vivo, rat
Description: In the gastric tolerance test, the product was compared with aspirin and phenylbutazone on the rat, with oral administration.

[4] = solubility; type: physicochemical
[5] = acute toxicity, rat; conditions: in vivo
Description: (§1) The acute toxicity in the rat and mouse is low

[6] = system: carrageenin oedema; assay: carrageenin oedema method (anti-inflammatory activity); type: in vivo; conditions: Rattus norvegicus; oral
[7] = acute toxicity, mouse; conditions: in vivo
Description: as §1

CC(=O)Oc1ccccc1C(=O)O [Aspirin, reference compound]
ED50 [1]: 45 mg/kg
ED50 ([2]; po): 140 mg/kg
gastric alterations ([3]; oral, 1000 mg/kg): haemorrhage spots, congestion and oedema

Cc1ccc(NC(=O)c2nc[nH]c2C)cc1Cl [Example 1, N-(3-chloro-4-methylphenyl)-5-methyl-4-imidazolecarboxamide]
solubility in acetone ([4]; acetone): soluble
solubility in an acid aqueous medium ([4]; acid aqueous medium): sparingly soluble
solubility in chloroform ([4]; chloroform): moderately soluble
solubility in ethanol ([4]; ethanol): soluble
solubility in isopropanol ([4]; isopropanol): soluble
solubility in methanol ([4]; methanol): soluble
solubility in toluene ([4]; toluene): insoluble
solubility in water ([4]; water): insoluble
LD50 ([5]; ip): 560 mg/kg
LD50 ([5]; oral): > 12000 mg/kg
ED50 [6]: 60 mg/kg
ED50 ([1]; read-out: ED50): 30 mg/kg
analgesic action relative to aspirin ([1]; relative to aspirin): 1.5 times
ED50 ([2]; oral, read-out: ED50): 48 mg/kg
antipyretic activity relative to aspirin ([2]; relative to aspirin): three times that of aspirin
antipyretic activity relative to pyramidon ([2]; relative to pyramidon): slightly superior to that of pyramidon
LD50 ([7]; ip): 700 mg/kg
LD50 ([7]; oral): > 8000 mg/kg

COc1ccc(Cl)cc1NC(=O)c1nc[nH]c1C [Example 5a, N-(5-chloro-2-methoxyphenyl)-5-methyl-4-imidazolecarboxamide]
ED50 [6]: 78 mg/kg

Cc1cc(NC(=O)c2nc[nH]c2C)ccc1[N+](=O)[O-] [Example 5b, N-(3-methyl-4-nitrophenyl)-5-methyl-4-imidazolecarboxamide]
ED50 ([1]; read-out: ED50): 35 mg/kg
ED50 ([2]; oral, read-out: ED50): 58 mg/kg

Cc1ccc(F)cc1NC(=O)c1nc[nH]c1C [Example 5c, N-(5-fluoro-2-methylphenyl)-5-methyl-4-imidazolecarboxamide]
ED50 ([1]; read-out: ED50): 50 mg/kg

Cc1[nH]cnc1C(=O)Nc1ccc(Cl)c([N+](=O)[O-])c1 [Example 5h, N-(4-chloro-3-nitrophenyl)-5-methyl-4-imidazolecarboxamide]
ED50 ([1]; read-out: ED50): 33 mg/kg

CCCCC1C(=O)N(c2ccccc2)N(c2ccccc2)C1=O [Phenylbutazone, reference compound]
ED50 [6]: 45 mg/kg
gastric alterations ([3]; rat, in vivo, po, 200 mg/kg): haemorrhage spots, congestion and oedema

Cc1c(N(C)C)c(=O)n(-c2ccccc2)n1C [Pyramidon, reference compound]
ED50 ([2]; oral, read-out: ED50): 55 mg/kg
